From ChEMBL document CHEMBL4417631, “Oral peptide inhibitors of interleukin-23 receptor and their use to treat inflammatory bowel diseases” (2017)
Where a SMILES comes first, the peptide text is derived from it. [ ]: non-standard residue; d: D form. hLeu = CC(C)CC[C@H](N)C(=O)O

Biological target: T1, Interleukin-23 receptor (Homo sapiens, UniProt Q5VWK5)
T1 sequence (Q5VWK5 whole entry): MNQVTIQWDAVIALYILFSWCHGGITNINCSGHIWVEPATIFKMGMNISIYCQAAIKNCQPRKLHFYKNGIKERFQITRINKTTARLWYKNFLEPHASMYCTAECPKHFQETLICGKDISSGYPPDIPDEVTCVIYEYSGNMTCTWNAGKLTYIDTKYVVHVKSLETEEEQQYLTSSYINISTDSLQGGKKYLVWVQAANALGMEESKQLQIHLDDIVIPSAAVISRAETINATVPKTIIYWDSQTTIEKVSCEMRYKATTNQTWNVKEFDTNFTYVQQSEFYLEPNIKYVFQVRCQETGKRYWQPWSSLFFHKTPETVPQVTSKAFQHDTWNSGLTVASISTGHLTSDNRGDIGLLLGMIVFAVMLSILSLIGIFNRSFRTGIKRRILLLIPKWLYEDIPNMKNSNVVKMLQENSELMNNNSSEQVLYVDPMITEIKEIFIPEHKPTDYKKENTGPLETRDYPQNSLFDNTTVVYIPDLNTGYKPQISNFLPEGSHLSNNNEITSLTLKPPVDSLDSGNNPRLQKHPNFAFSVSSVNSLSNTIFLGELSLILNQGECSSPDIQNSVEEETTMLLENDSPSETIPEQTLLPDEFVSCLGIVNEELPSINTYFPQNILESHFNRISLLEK
Assay: Inhibition of interleukin-23 binding to human interleukin-23 receptor incubated for 2 hrs by competitive binding ELISA

| Compound | IC50 [µM] |
| --- | --- |
| CC(C)[C@H](NC(=O)[C@H](Cc1c[nH]c2ccccc12)NC(=O)[C@H](CC(=O)O)NC(=O)[C@H](C)NC(=O)[C@@H](N)CS)C(=O)N[C@@H](CS)C(=O)N[C@@H](Cc1ccc(O)cc1)C(=O)N[C@@H](Cc1c[nH]c2ccccc12)C(=O)N[C@@H](Cc1cnc[nH]1)C(=O)N[C@H](C(=O)N[C@@H](Cc1ccccc1)C(=O)NCC(=O)N[C@@H](CCCCN)C(=O)O)[C@@H](C)O | > 1 |
| CC(=O)N[C@H]1CCSC[C@@H](C(=O)N[C@@H](Cc2ccc(OCCN)cc2)C(=O)N[C@@H](Cc2ccc3ccccc3c2)C(=O)N[C@@](C)(CCCCN)C(=O)N[C@@H](CCC(=O)O)C(=O)N[C@@H](CC(N)=O)C(=O)NCC(N)=O)NC(=O)[C@H](CCC(N)=O)NC(=O)[C@@H]2Cc3ccccc3CN2C(=O)[C@H]([C@@H](C)O)NC(=O)[C@H](CCC(N)=O)NC1=O | > 3 |
| CC(=O)N[C@@H](CS)C(=O)N[C@@H](C)C(=O)N[C@@H](CC(=O)O)C(=O)N[C@@H](Cc1c[nH]c2ccccc12)C(=O)N[C@H](C(=O)N[C@@H](CS)C(=O)N[C@@H](Cc1ccc(O)cc1)C(=O)N[C@@H](Cc1cccc2ccccc12)C(=O)N[C@@H](Cc1cnc[nH]1)C(=O)NC(C)(C)C(=O)N[C@@H](Cc1ccccc1)C(=O)NCC(N)=O)C(C)C | > 1 |
| CC(C)[C@H](NC(=O)[C@H](Cc1c[nH]c2ccccc12)NC(=O)[C@H](CC(=O)O)NC(=O)[C@H](C)NC(=O)[C@@H](N)CS)C(=O)N[C@@H](CS)C(=O)N[C@@H](Cc1ccc(O)cc1)C(=O)N[C@@H](Cc1c[nH]c2ccccc12)C(N)=O | > 1 |
| CC(=O)N[C@@H](CS)C(=O)N[C@@H](CCC(N)=O)C(=O)N[C@H](C(=O)N[C@@H](CCC(=O)O)C(=O)N[C@@H](CCC(N)=O)C(=O)N[C@@H](CS)C(=O)N[C@@H](Cc1ccc(O)cc1)C(=O)N[C@@H](Cc1c[nH]c2ccccc12)C(=O)N[C@@H](CCC(C)C)C(=O)N[C@@H](CCC(=O)O)C(=O)N[C@@H](CC(N)=O)C(=O)NCC(N)=O)[C@@H](C)O (Ac-CQTEQCYW[hLeu]ENG-NH2) | > 10 |
| CC(=O)N[C@@H](CS)C(=O)N[C@@H](C)C(=O)N[C@@H](CC(=O)O)C(=O)N[C@@H](Cc1c[nH]c2ccccc12)C(=O)N[C@H](C(=O)N[C@@H](CS)C(=O)N[C@@H](Cc1ccc(O)cc1)C(=O)N[C@@H](Cc1cccc2ccccc12)C(=O)N[C@H](C(=O)N[C@H](C(=O)N[C@@H](Cc1ccccc1)C(=O)NCC(N)=O)[C@@H](C)O)C(C)C)C(C)C | 0.5 to 1 |
| C[C@@H](O)[C@H](NC(=O)[C@H](CCC(N)=O)NC(=O)[C@@H](N)CS)C(=O)N[C@@H](Cc1c[nH]c2ccccc12)C(=O)N[C@@H](CCC(N)=O)C(=O)N[C@@H](CS)C(=O)N[C@@H](Cc1ccc(O)cc1)C(=O)N1Cc2ccccc2C[C@H]1C(=O)N[C@@H](CCCN)C(=O)N[C@@H](CCCCN)C(=O)N[C@@H](Cc1ccccc1)C(=O)NCC(=O)NCCOCC(=O)N[C@H](CCCCN)C(N)=O | > 30 |
| CC(C)[C@H](NC(=O)[C@H](Cc1c[nH]c2ccccc12)NC(=O)[C@H](CC(=O)O)NC(=O)[C@H](C)NC(=O)[C@@H](N)C(C)(C)S)C(=O)N[C@H](C(=O)N[C@@H](Cc1ccc(O)cc1)C(=O)N[C@@H](Cc1c[nH]c2ccccc12)C(=O)N[C@@H](Cc1cnc[nH]1)C(=O)N[C@H](C(=O)N[C@@H](Cc1ccccc1)C(=O)NCC(N)=O)[C@@H](C)O)C(C)(C)S | > 6 |
| CC(=O)N[C@@H](CS)C(=O)N[C@@H](CCC(N)=O)C(=O)N[C@H](C(=O)N[C@@H](Cc1c[nH]c2ccccc12)C(=O)N[C@@H](CCC(N)=O)C(=O)N[C@@H](CS)C(=O)N[C@@H](Cc1ccc(O)cc1)C(=O)N[C@@](C)(Cc1c[nH]c2ccccc12)C(=O)N[C@@H](CCCNC(=N)N)C(=O)N[C@H](C(=O)N[C@@H](CC(N)=O)C(=O)NCC(=O)NCCC(=O)N[C@H](CCCCN)C(N)=O)C(C)C)[C@@H](C)O | 6 |
| CC(=O)NCC(=O)N[C@@H](CC(=O)O)C(=O)N[C@@H](Cc1cnc[nH]1)C(=O)N[C@@H](CCCCN)C(=O)N[C@@H](CS)C(=O)N[C@@H](CO)C(=O)N[C@@H](CO)C(=O)N[C@@H](Cc1c[nH]c2ccccc12)C(=O)N[C@@H](CCC(=O)O)C(=O)N[C@@H](CS)C(=O)N[C@@H](Cc1ccc(O)cc1)C(=O)N[C@@H](Cc1c[nH]c2ccccc12)C(=O)N[C@@H](Cc1cnc[nH]1)C(=O)N[C@H](C(=O)N[C@@H](Cc1ccccc1)C(=O)NCC(N)=O)[C@@H](C)O (Ac-GDHKCSSWECYWHTFG-NH2) | 0.5 to 1 |
| COc1ccc(C[C@H](NC(=O)[C@@H](NC(=O)[C@H](CCC(N)=O)NC(=O)[C@H](Cc2c[nH]c3ccccc23)NC(=O)[C@@H](NC(=O)[C@H](CCC(N)=O)NC(=O)[C@@H](NC(=O)c2cc(O)c(O)c(O)c2)C(C)(C)S)[C@@H](C)O)C(C)(C)S)C(=O)N[C@@H](Cc2ccc3ccccc3c2)C(=O)N[C@@](C)(CCCCN)C(=O)N[C@@H](CCCCNC(C)=O)C(=O)N[C@@H](CC(N)=O)C(=O)NCC(N)=O)cc1 | 1 to 10 |
| CC(=O)N[C@@H](CS)C(=O)N[C@@H](C)C(=O)N[C@@H](CC(=O)O)C(=O)N[C@@H](Cc1c[nH]c2ccccc12)C(=O)N[C@H](C(=O)N[C@H](C(=O)N[C@@H](Cc1ccc(O)cc1)C(=O)N[C@@H](Cc1c[nH]c2ccccc12)C(=O)N[C@@H](Cc1cnc[nH]1)C(=O)N[C@H](C(=O)N[C@@H](Cc1ccccc1)C(=O)NCC(N)=O)[C@@H](C)O)C(C)(C)S)C(C)C | 1 to 10 |

Continued, values first:

| IC50 [µM] | Compound |
| --- | --- |
| < 0.5 | CC(=O)N[C@@H](CS)C(=O)N[C@@H](C)C(=O)N[C@@H](CC(=O)O)C(=O)N[C@@H](Cc1c[nH]c2ccccc12)C(=O)N[C@H](C(=O)N[C@@H](CS)C(=O)N[C@@H](Cc1ccc(O)cc1)C(=O)N[C@@H](Cc1c[nH]c2ccccc12)C(=O)N[C@@H](Cc1cnc[nH]1)C(=O)N[C@H](C(=O)N[C@@H](Cc1ccccc1)C(=O)NCC(=O)O)[C@@H](C)O)C(C)C |
| 0.025 to 0.1 | CC(=O)N[C@@H](CS)C(=O)N[C@@H](C)C(=O)N[C@@H](CC(=O)O)C(=O)N[C@@H](Cc1c[nH]c2ccccc12)C(=O)N[C@H](C(=O)N[C@@H](CS)C(=O)N[C@@H](Cc1ccc(O)cc1)C(=O)N[C@@H](Cc1c[nH]c2ccccc12)C(=O)N[C@@H](Cc1cnc[nH]1)C(=O)N[C@H](C(=O)N[C@@H](Cc1ccccc1)C(=O)NCC(=O)NCCC(=O)N[C@H](CCCCNC(=O)COCC(=O)NCCCC[C@@H](NC(=O)CCNC(=O)CNC(=O)[C@H](Cc1ccccc1)NC(=O)[C@@H](NC(=O)[C@H](Cc1cnc[nH]1)NC(=O)[C@H](Cc1c[nH]c2ccccc12)NC(=O)[C@H](Cc1ccc(O)cc1)NC(=O)[C@H](CS)NC(=O)[C@@H](NC(=O)[C@H](Cc1c[nH]c2ccccc12)NC(=O)[C@H](CC(=O)O)NC(=O)[C@H](C)NC(=O)[C@H](CS)NC(C)=O)C(C)C)[C@@H](C)O)C(=O)O)C(=O)O)[C@@H](C)O)C(C)C |
| < 0.5 | C[C@@H](O)[C@H](NC(=O)[C@H](CCCNC(=N)N)NC(=O)[C@@H](N)CS)C(=O)N[C@@H](Cc1c[nH]c2ccccc12)C(=O)N[C@@H](CCC(N)=O)C(=O)N[C@@H](CS)C(=O)N[C@@H](Cc1ccc(O)cc1)C(=O)N[C@@H](Cc1c[nH]c2ccccc12)C(=O)N[C@@H](CCCNC(=N)N)C(=O)N[C@@H](CCCCN)C(=O)N[C@@H](Cc1ccccc1)C(=O)NCC(N)=O (H-CRTWQCYWRKFG-NH2) |
| < 0.5 | CC(=O)N[C@@H](CS)C(=O)N[C@@H](C)C(=O)N[C@@H](CC(=O)O)C(=O)N[C@@H](Cc1c[nH]c2ccccc12)C(=O)N[C@H](C(=O)N[C@@H](CS)C(=O)N[C@@H](Cc1ccc(O)cc1)C(=O)N[C@@H](Cc1c[nH]c2ccccc12)C(=O)N[C@@H](Cc1cnc[nH]1)C(=O)N[C@H](C(=O)N[C@@H](Cc1cnc[nH]1)C(=O)NCC(=O)N[C@@H](CCC(=O)O)C(=O)N[C@@H](CCCNC(=N)N)C(N)=O)[C@@H](C)O)C(C)C |
| 0.1 to 1 | CC(=O)NC1CCC/C=C\CC(C(=O)N[C@@H](Cc2ccc(O)cc2)C(=O)N[C@@H](Cc2c[nH]c3ccccc23)C(=O)N[C@@H](CCCNC(=N)N)C(=O)N[C@@H](CCCCN)C(=O)N[C@@H](Cc2ccccc2)C(=O)NCC(=O)NCCOCC(=O)N[C@H](CCCCN)C(N)=O)NC(=O)[C@H](CCC(N)=O)NC(=O)[C@H](Cc2c[nH]c3ccccc23)NC(=O)[C@H]([C@@H](C)O)NC(=O)[C@H](CCCNC(=N)N)NC1=O (some centres undefined) |
| 0.1 to 1 | CC(=O)N[C@H]1CCSC[C@@H](C(=O)N[C@@H](Cc2ccc(Cl)c(Cl)c2)C(=O)N[C@@H](Cc2ccc3ccccc3c2)C(=O)NC(C)(C)C(=O)N[C@@H](CCC(=O)O)C(=O)N[C@@H](CC(N)=O)C(=O)NCC(N)=O)NC(=O)[C@H](CCC(N)=O)NC(=O)[C@H](Cc2c[nH]c3ccccc23)NC(=O)[C@H]([C@@H](C)O)NC(=O)[C@H](CCC(N)=O)NC1=O |
| 0.1 to 1 | COc1ccc(C[C@H](NC(=O)[C@@H](NC(=O)[C@H](CCC(N)=O)NC(=O)[C@H](Cc2c[nH]c3ccccc23)NC(=O)[C@@H](NC(=O)[C@H](CCC(N)=O)NC(=O)[C@@H](NC(C)=O)C(C)(C)S)[C@@H](C)O)C(C)(C)S)C(=O)N[C@@H](Cc2ccc3ccccc3c2)C(=O)N[C@@](C)(CCCCN)C(=O)N[C@@H](CCCCNC(CC(C)C)=C2C(=O)CC(C)(C)CC2=O)C(=O)N[C@@H](CC(N)=O)C(=O)NCC(N)=O)cc1 |
